Molecules are shown by their SMILES.

In this test the target is T1, CHOK1 cells engineered to overexpress human CCR2 (Homo sapiens, UniProt P41597).
T1 construct: expressed in transfected cells; host or cells: CHOK1 cells
Put plainly: Antibody dependent cellular cytotoxicity (ADCC) reporter assay. In kind it is cell-based. The note with it: with anti-cotinine antibody (SEQ ID NO: 11/12, human IgG1 Fc S239D/I332E); Jurkat FcγRIIIa NFAT-luciferase reporter cells; 12-18 hours; average if more than one run; read-out: ADCC Reporter Assay pEC50 (converted). The protocol:
An antibody dependent cellular cytoxocity reporter assay was conducted using the following four assay components: (i) ARM compound of Formula (I) targeting CCR2 (concentrations ranging from 1 pM to 10 μM) (ii) anti-cotinine antibody having a heavy chain sequence of SEQ ID NO: 11 and a light chain sequence of SEQ ID NO: 12 (rabbit variable region with human IgG1 Fc domain containing a DE mutation (S239D/I332E)) (concentrations ranging from 0.01 μg/mL to 200 μg/mL); (iii) target cells: CHOK1 cells engineered to overexpress either human CCR2 (typically 1000-20,000 cells perwell) and (iv) reporter cells: Jurkat cells engineered to express FcγRIIIa with the reporter gene luciferase under the control of the NFAT promoter (typically 3000-75,000 cells per well). Reagents were combined in a final volume of 20 μL in a 384—well tissue culture treated plate. All four assay components were incubated together for about 12-18 hours. Thereafter, BioGlo Detection reagent (Promega) was added to the wells to lyse the cells and provide a substrate for the luciferase reporter protein. Luminescence signal was measured on a microplate reader and signal:background was calculated by dividing the signal of a test well by the signal obtained when no ARM compound of Formula (I) was added. EC50 calculations were done using Graphpad Prism Software, specifically a nonlinear regression curve fit (Y=Bottom+(Top−Bottom)/(1+10 ^((Log EC50−X)*HillSlope))).
ARMs compounds of Formula (I) of the invention were tested for ADCC activity in the above assay in or more experimental runs and the results are shown in Table 3 below. Potency of the compounds of Formula (I) of the invention is reported as a pEC50 value. The pEC50 value is the negative log of the EC50 value, wherein the EC50 value is the half maximal effective concentration measured in molar (M). For compounds tested in more than one experimental run, the pEC50 value is reported as an average.
`CC(=O)N[C@@H]1C[C@H](NC(C)(C)C)CC[C@@H]1N1CC[C@H](Nc2nc(OC3CCN(C(=O)[C@H]4CC[C@H](NC(=O)CCCO[C@H]5CC[C@H](OCCNC(=O)[C@H]6CC(=O)N(C)[C@@H]6c6cccnc6)CC5)CC4)CC3)nc3ccc(C(F)(F)F)cc23)C1=O` [Example 7, (2S,3S)-N-(2-(((1R,4S)-4-(4-(((1S,4R)-4-(4-((4-(((S)-1-((1S,2R,4R)-2-acetamido-4-(tert-butylamino)cyclohexyl)-2-oxopyrrolidin-3-yl)amino)-6-(trifluoromethyl)quinazolin-2-yl)oxy)piperidine-1-carbonyl)cyclohexyl)amino)-4-oxobutoxy)cyclohexyl)oxy)ethyl)-1-methyl-5-oxo-2-(pyridin-3-yl)pyrrolidine-3-carboxamide]: the EC50 is 0.0794 µM.
For `CC(=O)N[C@@H]1C[C@H](NC(C)(C)C)CC[C@@H]1N1CC[C@H](Nc2nc(OCC3CCN(C(=O)[C@H]4CC[C@H](NC(=O)CCCO[C@H]5CC[C@H](OCCNC(=O)[C@H]6CC(=O)N(C)[C@@H]6c6cccnc6)CC5)CC4)CC3)nc3ccc(C(F)(F)F)cc23)C1=O` [Example 8, (2S,3S)-N-(2-(((1R,4S)-4-(4-(((1S,4R)-4-(4-(((4-(((S)-1-((1S,2R,4R)-2-Acetamido-4-(tert-butylamino)cyclohexyl)-2-oxopyrrolidin-3-yl)amino)-6-(trifluoromethyl)quinazolin-2-yl)oxy)methyl)piperidine-1-carbonyl)cyclohexyl)amino)-4-oxobutoxy)cyclohexyl)oxy)ethyl)-1-methyl-5-oxo-2-(pyridin-3-yl)pyrrolidine-3-carboxamide], the EC50 is 0.0501 µM.
On to `CC(=O)N[C@@H]1C[C@H](NC(C)(C)C)CC[C@@H]1N1CC[C@H](Nc2nc(NCCNC(=O)[C@H]3CC[C@H](NC(=O)CCCO[C@H]4CC[C@H](OCCNC(=O)[C@H]5CC(=O)N(C)[C@@H]5c5cccnc5)CC4)CC3)nc3ccc(C(F)(F)F)cc23)C1=O` [Example 12, (2S,3S)-N-(2-(((1R,4S)-4-(4-(((1S,4R)-4-((2-((4-(((S)-1-((1S,2R,4R)-2-Acetamido-4-(tert-butylamino)cyclohexyl)-2-oxopyrrolidin-3-yl)amino)-6-(trifluoromethyl)quinazolin-2-yl)amino)ethyl)carbamoyl)cyclohexyl)amino)-4-oxobutoxy)cyclohexyl)oxy)ethyl)-1-methyl-5-oxo-2-(pyridin-3-yl)pyrrolidine-3-carboxamide], for which the EC50 is 0.000251 µM.

For the origin of these results see patent US20250057958A1, “CYTOTOXICITY TARGETING CHIMERAS FOR CCR2-EXPRESSING CELLS” (GLAXOSMITHKLINE INTELLECTUAL PROPERTY DEVELOPMENT LIMITED, priority 2022, published 2025).
